Data on 19 molecules can be found in patent publication US10669252B2, “Benzazepine derivative, preparation method, pharmaceutical composition and use thereof” (SHANGHAI DE NOVO PHARMATECH CO., LTD., priority 2016, dated 2020).

As a reminder, the EC50 is the concentration that produces a half-maximal response.

Assay [1] deals with T1, TLR8 (Homo sapiens, UniProt Q9NR97).
T1 construct: host or cells: HEK293 (HEK-BLUE-hTLR8)
T1 sequence (Q9NR97 27-1041): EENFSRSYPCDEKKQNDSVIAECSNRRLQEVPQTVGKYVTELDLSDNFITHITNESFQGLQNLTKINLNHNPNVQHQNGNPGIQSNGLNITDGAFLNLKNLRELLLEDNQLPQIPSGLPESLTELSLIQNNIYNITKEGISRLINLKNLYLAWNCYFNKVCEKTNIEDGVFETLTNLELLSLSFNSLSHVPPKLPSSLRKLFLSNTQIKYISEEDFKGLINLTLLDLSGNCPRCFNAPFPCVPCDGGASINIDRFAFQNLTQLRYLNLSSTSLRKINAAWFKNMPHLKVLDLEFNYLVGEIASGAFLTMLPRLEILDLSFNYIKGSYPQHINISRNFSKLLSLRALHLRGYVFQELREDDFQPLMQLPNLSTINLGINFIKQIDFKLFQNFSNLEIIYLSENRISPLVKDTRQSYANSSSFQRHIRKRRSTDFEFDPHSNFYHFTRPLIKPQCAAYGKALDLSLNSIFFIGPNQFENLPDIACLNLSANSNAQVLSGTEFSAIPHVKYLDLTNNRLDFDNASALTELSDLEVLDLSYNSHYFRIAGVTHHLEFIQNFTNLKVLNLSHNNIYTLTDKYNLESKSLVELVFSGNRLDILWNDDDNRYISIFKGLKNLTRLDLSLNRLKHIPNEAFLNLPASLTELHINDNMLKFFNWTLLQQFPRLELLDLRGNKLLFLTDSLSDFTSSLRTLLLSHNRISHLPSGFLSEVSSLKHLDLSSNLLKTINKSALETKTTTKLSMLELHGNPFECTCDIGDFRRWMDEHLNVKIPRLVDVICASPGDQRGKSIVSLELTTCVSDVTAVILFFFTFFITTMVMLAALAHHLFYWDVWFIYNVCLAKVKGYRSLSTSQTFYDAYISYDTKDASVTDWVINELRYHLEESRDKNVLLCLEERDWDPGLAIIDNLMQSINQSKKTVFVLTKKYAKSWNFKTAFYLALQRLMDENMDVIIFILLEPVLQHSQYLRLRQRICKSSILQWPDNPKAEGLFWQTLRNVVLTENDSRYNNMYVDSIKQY
Briefly: TLR8 cell based assay (HEK-BLUE-hTLR8, SEAP reporter linked to NF-κB activation). As to conditions: HEK-BLUE-hTLR8 cells. The essentials:
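HEK-BLUE-hTLR8 cells (40,000/well) exposed 24 h at 37° C, 5% CO2 to compound, 10 points from 0.5 nM to 15 μM, 0.5% DMSO. Supernatant SEAP read with QUANTI-Blue (1.5 h, 37° C) at OD 650 nm; activation % normalized to DMSO and TLR8 agonist control, EC50 fitted.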

Assay [2] concerns the target T2, TLR7 (Homo sapiens, UniProt Q9NYK1).
T2 construct: host or cells: HEK293 (HEK-BLUE-hTLR7)
T2 sequence (Q9NYK1 27-1049): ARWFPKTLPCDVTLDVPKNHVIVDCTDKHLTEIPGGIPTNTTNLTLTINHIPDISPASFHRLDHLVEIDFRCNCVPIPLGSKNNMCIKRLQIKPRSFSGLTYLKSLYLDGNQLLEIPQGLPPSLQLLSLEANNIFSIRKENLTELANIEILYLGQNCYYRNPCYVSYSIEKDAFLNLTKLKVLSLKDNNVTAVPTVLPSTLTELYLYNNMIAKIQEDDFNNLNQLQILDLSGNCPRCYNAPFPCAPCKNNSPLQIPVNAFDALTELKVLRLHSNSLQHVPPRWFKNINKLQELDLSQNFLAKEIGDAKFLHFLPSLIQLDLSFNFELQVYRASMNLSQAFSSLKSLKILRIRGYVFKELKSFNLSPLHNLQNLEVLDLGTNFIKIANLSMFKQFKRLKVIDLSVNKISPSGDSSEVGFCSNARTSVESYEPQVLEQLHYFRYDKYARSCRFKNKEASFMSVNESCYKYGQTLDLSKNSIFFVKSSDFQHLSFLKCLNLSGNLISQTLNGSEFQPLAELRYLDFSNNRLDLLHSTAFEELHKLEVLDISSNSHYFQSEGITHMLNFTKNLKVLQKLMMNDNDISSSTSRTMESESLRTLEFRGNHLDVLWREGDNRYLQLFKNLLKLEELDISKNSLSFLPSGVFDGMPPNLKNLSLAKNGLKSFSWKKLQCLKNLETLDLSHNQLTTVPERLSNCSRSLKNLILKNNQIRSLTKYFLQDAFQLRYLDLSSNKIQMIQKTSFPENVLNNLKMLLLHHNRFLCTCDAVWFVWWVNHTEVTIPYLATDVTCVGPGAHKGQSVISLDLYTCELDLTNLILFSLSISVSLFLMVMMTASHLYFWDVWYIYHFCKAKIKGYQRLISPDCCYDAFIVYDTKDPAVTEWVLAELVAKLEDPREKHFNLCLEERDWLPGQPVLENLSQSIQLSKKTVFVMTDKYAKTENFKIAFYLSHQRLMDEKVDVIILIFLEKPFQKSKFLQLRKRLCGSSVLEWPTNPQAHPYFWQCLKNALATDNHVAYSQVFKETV
Briefly: TLR7 cell based assay (HEK-BLUE-hTLR7, SEAP reporter linked to NF-κB activation). The conditions noted are these: HEK-BLUE-hTLR7 cells, 24 hours treatment, SEAP/QUANTI-Blue readout. The method, then: In this assay, the bioactivity of compound of formula (I) was measured using a cell based assay. The assay was performed in human embryonic kidney cells (HEK293) expressing TLR7 or other TLR family members such as TLR4, and TLR9 (for selectivity screens). The activity of specific TLR agonists was assessed using the secretory embryonic alkaline phosphatase (SEAP) reporter gene that is linked to NF-κB activation in response to TLR stimulation. The SEAP activity was measured using the Quanti-Blue substrate (InvivoGen) after TLR agonist treatment.
The detailed experimental method is as follow:
HEK-BLUE-hTLR7 cell line was purchased from InvivoGen. The cells were cultured in Dulbecco's Modified Eagle's Media containing 4.5 g/L […] (Sigma-Aldrich) and 10% FBS. The cells were cultured at 37° C., 95% humidity and 5% CO2.
[…] A known TLR8 agonist was added as positive control and 1 μl of DMSO was added as negative control.
The cells were prepared as follows. The cells were removed from the incubator and growth medium was discarded. The cells were gently rinsed with pre-warmed 10 ml PBS for a T-150 flask. 12 ml pre-warmed growth medium was added, and the cells were detached by tapping the flask. Cell clumps were dissociated by gently pipetting up and down. The cells were counted. Single cell suspension was prepared at 200,000 cells per ml in growth medium and 200 μl of the cell suspension (40,000 cells per well) were immediately added to each well of the plate. The final DMSO concentration of each well was 0.5%.
The cells were cultured and treated with the compounds at 37° C., 5% CO2 for 24 hours.
20 μL of the supernatant of each well were added to 180 μL of QUANTI-Blue, and the plates were incubated at 37° C. for 1.5 hour. Optical density was measured using a spectrophotometer at 650 nm (OD data). Activivation was calculated by using the equation below: Activivation %=(Compound OD mean value−DMSO OD mean value)/(positive control OD mean value−DMSO OD mean value)×100
The data were analyzed using the GraphPad to get EC50 values and fitting dose response curves of the compounds.

Setting [3] is: 24 h treatment, SEAP/QUANTI-Blue readout.

Consider `CCCN(CCC)C(=O)C1=Cc2ccc(-c3ccc4c(=O)n(CCP(=O)(OCC)OCC)ccc4c3)cc2N=C(N)C1` [Compound 1-2-43], for which the concentration giving a half-maximal response (EC50) is 100 to 1000 nM in assay [1] (setting [3]) and > 50000 nM in assay [2].

`CCCN(CCC)C(=O)C1=Cc2ccc(-c3ccc4c(=O)n(CC(C)(C)O)ncc4c3)cc2N=C(N)C1` [Compound 1-8-4]: the EC50 in assay [1] (setting [3]) was < 100 nM; in assay [2], > 50000 nM.

For the molecule `CCCN(CCC)C(=O)C1=Cc2ccc(-c3ccc4c(=O)n(Cc5nnnn5C)ccc4c3)cc2N=C(N)C1` [Compound 1-2-40], the concentration for a half-maximal effect (EC50) was < 100 nM in assay [1] (setting [3]), < 10 nM in assay [1] (bound stated) and > 50000 nM in assay [2].

On to `CCCN(CCC)C(=O)C1=Cc2c(F)cc(-c3ccc4c(=O)n(CC(N)=O)ccc4c3)cc2N=C(N)C1` [Compound 1-10-1], for which the EC50 was < 100 nM in assay [1] (setting [3]) and > 50000 nM in assay [2].

Regarding `CCCN(CCC)C(=O)C1=Cc2ccc(-c3ccc4c(=O)n(CCS(=O)(=O)CC)ncc4c3)cc2N=C(N)C1` [Compound 1-8-12], the EC50 in assay [1] (setting [3]) was < 100 nM; in assay [2] it was 10000 to 50000 nM.

In the case of `CCCN(CCC)C(=O)C1=Cc2ccc(-c3ccc4c(c3)CN(CCO)C4=O)cc2N=C(N)C1` [Compound 1-3-2], the values for the EC50 in assay [1] (setting [3]) and in assay [2] were < 100 nM and > 50000 nM, respectively.

For the molecule `CCCN(CCC)C(=O)C1=Cc2ccc(-c3ccc4c(=O)n(CCN)ccc4c3)cc2N=C(N)C1` [Compound 1-2-17], the EC50 in assay [1] (setting [3]) is < 100 nM; in assay [2], > 50000 nM.

On to `CCCN(CCC)C(=O)C1=Cc2ccc(-c3ccc4c(=O)n(CCS(C)(=O)=O)c(=O)n(C)c4c3)cc2N=C(N)C1` [Compound 1-9-4], for which the EC50 in assay [1] (setting [3]) was 100 to 1000 nM; in assay [2], > 50000 nM.

In the case of `CCCN(CCC)C(=O)C1=Cc2ccc(-c3ccc4c(=O)n(Cc5nncn5C)ccc4c3)cc2N=C(N)C1` [Compound 1-2-36], the figures for the EC50 in assay [1] (setting [3]) and in assay [2] were < 100 nM and 10000 to 50000 nM, respectively.

`CCCN(CCC)C(=O)C1=Cc2ccc(-c3ccc4c(=O)n(CC(=O)NC)c(=O)n(C)c4c3)cc2N=C(N)C1` [Compound 1-9-2]: the values for the 50% effective concentration (EC50) in assay [1] (setting [3]) and in assay [2] were < 100 nM and > 50000 nM, respectively.

As for `CCCN(CCC)C(=O)C1=Cc2ccc(-c3ccc4c(=O)n(Cc5ccn(C)n5)ccc4c3)cc2N=C(N)C1` [Compound 1-2-35], the EC50 in assay [1] (setting [3]) is < 100 nM; in assay [2], > 50000 nM.

As for `CCCN(CCC)C(=O)C1=Cc2ccc(-c3ccc4c(=O)n(CC(C)(C)O)c(C)cc4c3)cc2N=C(N)C1` [Compound 1-2-9], the EC50 in assay [1] (setting [3]) is < 100 nM; in assay [2], > 50000 nM.

As to `CCCN(CCC)C(=O)C1=Cc2ccc(-c3ccc4c(=O)n(CCOC)ccc4c3)cc2N=C(N)C1` [Compound 1-2-14], the concentration giving a half-maximal response (EC50) was < 100 nM in assay [1] (setting [3]) and > 50000 nM in assay [2].

Take `CCCN(CCC)C(=O)C1=Cc2ccc(-c3ccc4c(=O)n(CC(N)=O)ncc4c3)cc2N=C(N)C1` [Compound 1-8-1]: the concentration for a half-maximal effect (EC50) was < 100 nM in assay [1] (setting [3]) and > 50000 nM in assay [2].

Take `CCCN(CCC)C(=O)C1=Cc2ccc(-c3ccc4c(=O)n(Cc5ncco5)ncc4c3)cc2N=C(N)C1` [Compound 1-8-15]: the half-maximal effective concentration (EC50) in assay [1] (setting [3]) is < 100 nM; in assay [2] it was 10000 to 50000 nM.

Regarding `CCCN(CCC)C(=O)C1=Cc2ccc(-c3ccc4c(=O)n(CCS(C)(=O)=O)cnc4c3)cc2N=C(N)C1` [Compound 1-7-2], the EC50 was 100 to 1000 nM in assay [1] (setting [3]) and > 50000 nM in assay [2].

As for `CCCN(CCC)C(=O)C1=Cc2ccc(-c3ccc4c(=O)n(CCO)cnc4c3)cc2N=C(N)C1` [Compound 1-7-4], the EC50 in assay [1] (setting [3]) is < 100 nM; in assay [2] it was > 50000 nM.

As to `CCCN(CCC)C(=O)C1=Cc2ccc(-c3ccc4c(c3)CCN(CCO)C4=O)cc2N=C(N)C1` [Compound 1-4-10], the EC50 in assay [1] (setting [3]) is 100 to 1000 nM; in assay [2] it was > 50000 nM.

On to `CCCN(CCC)C(=O)C1=Cc2ccc(-c3ccc4c(=O)n(Cc5ncccn5)ccc4c3)cc2N=C(N)C1` [Compound 1-2-31], for which the values for the EC50 in assay [1] (setting [3]), in assay [1] (bound stated) and in assay [2] were < 100 nM, < 10 nM and 10000 to 50000 nM, respectively.
